Values of other authors as cited in patent US20140342022A1, “Natural Product Against Fatigue” (priority 2013, published 2014).

Tested on: EBV-EA activation
Settings: latently infected cells

In the case of `O=c1c(O)c(-c2ccc(O)c(O)c2)oc2cc(O)cc(O)c12` [quercetin], the EBV-EA activation is given as “inhibits”.
